Measurements taken from ChEMBL document CHEMBL1909046, “DrugMatrix in vitro pharmacology data”.
pIC50, pKi: −log10 of the molar value.

Columns and labels:
[1] = biological target: C-C chemokine receptor type 5 (Homo sapiens, UniProt P51681); format: cell membranes, Membrane; details: hek293; note: in other assays of this panel Not Active means under 50% inhibition at 10 µM
[2] = biological target: Prostaglandin G/H synthase 1 (Homo sapiens, UniProt P23219); assay: biochemical; format: tissue-based, Platelet; details: for IC50: platelet;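 for all read-outs here: inhibition of COX-1 enzyme activity, with arachidonic acid supplied as substrate; in other assays of this panel Not Active means under 50% inhibition at 10 µM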
Sequence of Prostaglandin G/H synthase 1 (P23219 whole entry): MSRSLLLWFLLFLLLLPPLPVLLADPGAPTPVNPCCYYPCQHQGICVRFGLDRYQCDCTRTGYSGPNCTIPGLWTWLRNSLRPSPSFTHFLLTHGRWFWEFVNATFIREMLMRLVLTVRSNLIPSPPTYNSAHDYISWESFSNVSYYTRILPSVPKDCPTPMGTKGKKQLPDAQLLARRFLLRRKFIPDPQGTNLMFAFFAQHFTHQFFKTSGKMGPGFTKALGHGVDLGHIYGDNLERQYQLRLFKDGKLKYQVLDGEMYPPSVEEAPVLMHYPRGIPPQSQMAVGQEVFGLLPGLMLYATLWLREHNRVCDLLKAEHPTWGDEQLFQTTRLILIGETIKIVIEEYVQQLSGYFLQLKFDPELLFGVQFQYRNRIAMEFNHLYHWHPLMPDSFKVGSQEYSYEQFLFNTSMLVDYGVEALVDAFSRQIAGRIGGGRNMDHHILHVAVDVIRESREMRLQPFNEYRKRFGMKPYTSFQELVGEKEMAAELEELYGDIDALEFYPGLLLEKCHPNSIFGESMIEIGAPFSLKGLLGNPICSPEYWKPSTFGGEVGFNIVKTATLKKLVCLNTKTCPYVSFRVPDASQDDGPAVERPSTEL

[3] = biological target: D(1A) dopamine receptor (Homo sapiens, UniProt P21728); assay: DRUGMATRIX: Dopamine D1 radioligand binding (ligand: [3H] SCH-23390); format: cell membranes, CHO, Membrane; details: Not Active = under 50% inhibition at 10 µM; for IC50: cho
Sequence of D(1A) dopamine receptor (P21728 whole entry): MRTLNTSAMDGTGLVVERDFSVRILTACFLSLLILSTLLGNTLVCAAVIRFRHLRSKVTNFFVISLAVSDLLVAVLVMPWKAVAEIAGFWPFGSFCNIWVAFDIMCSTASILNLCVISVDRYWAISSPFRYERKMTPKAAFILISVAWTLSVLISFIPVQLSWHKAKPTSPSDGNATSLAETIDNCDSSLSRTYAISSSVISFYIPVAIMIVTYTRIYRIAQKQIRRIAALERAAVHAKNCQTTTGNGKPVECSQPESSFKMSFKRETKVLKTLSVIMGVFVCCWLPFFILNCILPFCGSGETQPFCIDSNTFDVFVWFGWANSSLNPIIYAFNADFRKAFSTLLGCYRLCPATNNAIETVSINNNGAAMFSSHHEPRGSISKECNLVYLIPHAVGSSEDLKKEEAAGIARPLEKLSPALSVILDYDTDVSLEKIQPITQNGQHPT

[4] = biological target: Kappa-type opioid receptor (Homo sapiens, UniProt P41145); assay: DRUGMATRIX: Opiate kappa (OP2, KOP) radioligand binding (ligand: [3H] Diprenorphine); format: cell membranes, HEK293, Membrane; details: hek293; Not Active = under 50% inhibition at 10 µM
Sequence of Kappa-type opioid receptor (P41145 whole entry): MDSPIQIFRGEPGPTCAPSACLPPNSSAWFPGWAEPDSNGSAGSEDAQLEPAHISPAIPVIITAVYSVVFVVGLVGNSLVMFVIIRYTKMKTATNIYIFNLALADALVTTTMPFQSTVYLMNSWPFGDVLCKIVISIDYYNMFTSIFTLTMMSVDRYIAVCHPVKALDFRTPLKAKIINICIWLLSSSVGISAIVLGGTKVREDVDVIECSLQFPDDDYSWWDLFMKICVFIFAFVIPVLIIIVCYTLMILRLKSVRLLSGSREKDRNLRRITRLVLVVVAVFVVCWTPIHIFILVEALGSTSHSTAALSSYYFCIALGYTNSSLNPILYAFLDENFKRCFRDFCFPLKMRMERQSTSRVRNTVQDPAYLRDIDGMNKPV

[5] = biological target: T1, Caspase-1 (Homo sapiens, UniProt P29466); design: species or system Escherichia coli;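 note: Caspase-1 enzyme inhibition assay with a peptide substrate; in other assays of this panel Not Active means under 50% inhibition at 10 µM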
T1 sequence (P29466 whole entry): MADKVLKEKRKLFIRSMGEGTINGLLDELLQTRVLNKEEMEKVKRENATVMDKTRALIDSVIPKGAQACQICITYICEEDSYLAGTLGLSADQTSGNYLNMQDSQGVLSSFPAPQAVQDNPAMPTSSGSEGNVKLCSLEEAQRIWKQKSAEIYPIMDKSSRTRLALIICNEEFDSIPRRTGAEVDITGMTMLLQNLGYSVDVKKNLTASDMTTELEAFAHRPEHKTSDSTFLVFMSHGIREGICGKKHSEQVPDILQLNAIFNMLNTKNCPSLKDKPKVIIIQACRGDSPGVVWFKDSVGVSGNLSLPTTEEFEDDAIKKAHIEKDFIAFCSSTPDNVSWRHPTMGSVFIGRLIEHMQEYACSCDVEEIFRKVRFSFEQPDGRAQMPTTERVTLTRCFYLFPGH

[6] = biological target: T2, Cytochrome P450 1A2 (Homo sapiens, UniProt P05177); details: bti-tn-5b1-4; note: in other assays of this panel Not Active means under 50% inhibition at 10 µM
T2 sequence (P05177 whole entry): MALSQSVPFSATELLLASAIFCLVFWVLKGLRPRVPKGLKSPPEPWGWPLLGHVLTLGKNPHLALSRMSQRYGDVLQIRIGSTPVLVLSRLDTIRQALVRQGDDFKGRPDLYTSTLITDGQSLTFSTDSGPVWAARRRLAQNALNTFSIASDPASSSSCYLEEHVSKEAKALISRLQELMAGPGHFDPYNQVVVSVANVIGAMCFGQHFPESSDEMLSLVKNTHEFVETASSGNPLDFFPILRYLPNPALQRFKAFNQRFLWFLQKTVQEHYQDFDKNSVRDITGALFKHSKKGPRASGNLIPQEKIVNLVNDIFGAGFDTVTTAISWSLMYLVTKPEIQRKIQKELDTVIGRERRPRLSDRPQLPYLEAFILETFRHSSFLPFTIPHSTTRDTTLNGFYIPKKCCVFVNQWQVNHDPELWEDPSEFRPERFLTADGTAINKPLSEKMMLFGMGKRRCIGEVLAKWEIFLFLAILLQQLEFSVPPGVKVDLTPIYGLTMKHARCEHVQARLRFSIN

[7] = biological target: T3, Cytochrome P450 2A6 (Homo sapiens, UniProt P11509); details: bti-tn-5b1-4; note: in other assays of this panel Not Active means under 50% inhibition at 10 µM
T3 sequence (P11509 whole entry): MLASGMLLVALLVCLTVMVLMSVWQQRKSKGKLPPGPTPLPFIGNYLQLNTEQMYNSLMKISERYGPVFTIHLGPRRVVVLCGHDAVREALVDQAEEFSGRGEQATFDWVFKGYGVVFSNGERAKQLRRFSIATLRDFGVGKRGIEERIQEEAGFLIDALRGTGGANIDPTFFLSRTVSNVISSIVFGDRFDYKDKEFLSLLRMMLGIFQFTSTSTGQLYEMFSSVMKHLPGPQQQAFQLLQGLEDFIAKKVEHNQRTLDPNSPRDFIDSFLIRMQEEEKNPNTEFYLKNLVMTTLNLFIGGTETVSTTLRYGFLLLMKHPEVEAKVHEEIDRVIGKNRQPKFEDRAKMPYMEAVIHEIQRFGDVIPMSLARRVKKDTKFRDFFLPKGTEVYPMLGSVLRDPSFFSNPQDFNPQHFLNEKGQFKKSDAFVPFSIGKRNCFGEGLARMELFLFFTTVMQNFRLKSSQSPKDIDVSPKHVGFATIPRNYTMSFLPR

Sequence of C-C chemokine receptor type 5 (P51681 whole entry): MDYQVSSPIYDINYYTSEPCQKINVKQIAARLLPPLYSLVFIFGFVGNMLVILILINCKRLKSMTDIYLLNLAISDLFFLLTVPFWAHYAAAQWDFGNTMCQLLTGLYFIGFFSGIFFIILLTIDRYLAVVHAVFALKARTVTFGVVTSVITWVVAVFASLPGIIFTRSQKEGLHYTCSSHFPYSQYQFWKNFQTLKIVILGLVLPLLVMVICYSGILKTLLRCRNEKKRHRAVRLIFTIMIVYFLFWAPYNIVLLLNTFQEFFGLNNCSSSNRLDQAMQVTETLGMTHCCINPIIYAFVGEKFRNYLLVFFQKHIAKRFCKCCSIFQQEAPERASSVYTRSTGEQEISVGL

CC[C@H]1[C@@H]2C[C@H]3[C@@H]4N(C)c5ccccc5[C@]45C[C@@H]([C@@H]2[C@H]5O)N3[C@@H]1O [AJMALINE]
Not Active: IC50 [1] | IC50 [2] | IC50 [3] | IC50 [4] | IC50 [5] | IC50 [6] | Ki [6] | IC50 [7] | Ki [7]

C[C@H]1[C@H](NC(=O)/C(=N\OC(C)(C)C(=O)O)c2csc(N)n2)C(=O)N1S(=O)(=O)O [AZTREONAM]
Not Active: IC50 [1] | IC50 [2] | IC50 [3] | IC50 [4] | IC50 [5] | IC50 [6] | Ki [6] | IC50 [7] | Ki [7]

CO/N=C(\C(=O)N[C@@H]1C(=O)N2C(C(=O)O)=C(COC(C)=O)CS[C@H]12)c1csc(N)n1 [CEFOTAXIME]
Not Active: IC50 [1] | IC50 [2] | IC50 [3] | IC50 [4] | IC50 [5] | IC50 [6] | Ki [6] | IC50 [7] | Ki [7]

CC(C)C[C@H]1C(=O)N2CCC[C@H]2[C@]2(O)O[C@](NC(=O)[C@@H]3C=C4c5cccc6[nH]cc(c56)C[C@H]4N(C)C3)(C(C)C)C(=O)N12 [ERGOCRYPTINE]
6.39: pIC50 ([3]; read-out: IC50)
6.69: pKi ([3]; read-out: Ki)
Not Active: IC50 [1] | IC50 [2] | IC50 [4] | IC50 [5] | IC50 [6] | Ki [6] | IC50 [7] | Ki [7]

CCN(C(C)=O)c1cccc(-c2ccnc3c(C#N)cnn23)c1 [ZALEPLON]
Not Active: IC50 [1] | IC50 [2] | IC50 [3] | IC50 [4] | IC50 [5] | IC50 [6] | Ki [6] | IC50 [7] | Ki [7]

Nc1cc(-c2ccncc2)c[nH]c1=O [INAMRINONE]
Not Active: IC50 [1] | IC50 [2] | IC50 [3] | IC50 [4] | IC50 [5] | IC50 [6] | Ki [6] | IC50 [7] | Ki [7]

NC(=O)c1cccc(N)c1 [3-AMINOBENZAMIDE]
Not Active: IC50 [1] | IC50 [2] | IC50 [3] | IC50 [4] | IC50 [5] | IC50 [6] | Ki [6] | IC50 [7] | Ki [7]

NC(=O)c1cccnc1 [NIACINAMIDE]
Not Active: IC50 [1] | IC50 [2] | IC50 [3] | IC50 [4] | IC50 [5] | IC50 [6] | Ki [6] | IC50 [7] | Ki [7]

CCC1=C(C)CN(C(=O)NCCc2ccc(S(=O)(=O)NC(=O)N[C@H]3CC[C@H](C)CC3)cc2)C1=O [GLIMEPIRIDE]
Not Active: IC50 [1] | IC50 [2] | IC50 [3] | IC50 [4] | IC50 [5] | IC50 [6] | Ki [6] | IC50 [7] | Ki [7]

CC(C)NCC(O)c1ccccc1Cl (centres undefined) [CLORPRENALINE]
Not Active: IC50 [1] | IC50 [2] | IC50 [3] | IC50 [4] | IC50 [5] | IC50 [6] | Ki [6] | IC50 [7] | Ki [7]

COc1cccc2c1C(=O)c1c(O)c3c(c(O)c1C2=O)C[C@@](O)(C(C)=O)C[C@@H]3O[C@H]1C[C@H](N)[C@H](O)[C@H](C)O1 [DAUNORUBICIN]
Not Active: IC50 [1] | IC50 [2] | IC50 [3] | IC50 [4] | IC50 [5] | IC50 [6] | Ki [6] | IC50 [7] | Ki [7]

COc1ccccc1N
Not Active: IC50 [1] | IC50 [3] | IC50 [4] | IC50 [5] | IC50 [6] | Ki [6] | IC50 [7] | Ki [7]
5.50: pIC50 ([2]; read-out: IC50)

CC[C@]1(O)C[C@@H]2CN(CCc3c([nH]c4ccccc34)[C@@](C(=O)OC)(c3cc4c(cc3OC)N(C)[C@H]3[C@@](O)(C(N)=O)[C@H](O)[C@]5(CC)C=CCN6CC[C@]43[C@@H]65)C2)C1 [VINDESINE]
Not Active: IC50 [1] | IC50 [2] | IC50 [3] | IC50 [4] | IC50 [5] | IC50 [6] | Ki [6] | IC50 [7] | Ki [7]

C[S+](C)[O-] [DIMETHYL SULFOXIDE]
Not Active: IC50 [1] | IC50 [2] | IC50 [3] | IC50 [4] | IC50 [5] | IC50 [6] | Ki [6] | IC50 [7] | Ki [7]

O=C(c1ccccc1F)N1CCC(Cc2ccccc2)CC1
Not Active: IC50 [1] | IC50 [2] | IC50 [3] | IC50 [4] | IC50 [5] | IC50 [6] | Ki [6] | IC50 [7] | Ki [7]

O=C(O)CCNC(=O)c1ccc(/N=N/c2ccc(O)c(C(=O)O)c2)cc1 [BALSALAZIDE]
Not Active: IC50 [1] | IC50 [2] | IC50 [3] | IC50 [4] | IC50 [5] | IC50 [6] | Ki [6] | IC50 [7] | Ki [7]

N=C(N)c1ccc(OCCCCCOc2ccc(C(=N)N)cc2)cc1 [PENTAMIDINE]
Not Active: IC50 [1] | IC50 [2] | IC50 [3] | IC50 [4] | IC50 [5] | IC50 [6] | Ki [6] | IC50 [7] | Ki [7]

CN1C(=O)CN=C(c2ccccc2)c2cc([N+](=O)[O-])ccc21 [NIMETAZEPAM]
Not Active: IC50 [1] | IC50 [2] | IC50 [3] | IC50 [4] | IC50 [5] | IC50 [6] | Ki [6] | IC50 [7] | Ki [7]

NS(=O)(=O)c1cc(C2(O)NC(=O)c3ccccc32)ccc1Cl (centres undefined) [CHLORTHALIDONE]
Not Active: IC50 [1] | IC50 [2] | IC50 [3] | IC50 [4] | IC50 [5] | IC50 [6] | Ki [6] | IC50 [7] | Ki [7]

CC(=O)OCC(=O)[C@@]1(O)CC[C@H]2[C@@H]3CCC4=CC(=O)CC[C@]4(C)[C@@]3(F)[C@@H](O)C[C@@]21C [FLUDROCORTISONE ACETATE]
Not Active: IC50 [1] | IC50 [2] | IC50 [3] | IC50 [4] | IC50 [5] | IC50 [6] | Ki [6] | IC50 [7] | Ki [7]

O=c1c(-c2ccc(O)cc2)coc2cc(O)cc(O)c12 [GENISTEIN]
Not Active: IC50 [1] | IC50 [2] | IC50 [3] | IC50 [4] | IC50 [5] | IC50 [6] | Ki [6] | IC50 [7] | Ki [7]

CN1C[C@@H]2C[C@H]1CN2c1cc2c(cc1F)c(=O)c(C(=O)O)cn2C1CC1 [DANOFLOXACIN]
Not Active: IC50 [1] | IC50 [2] | IC50 [3] | IC50 [4] | IC50 [5] | IC50 [6] | Ki [6] | IC50 [7] | Ki [7]
